Patent US20030118627A1 (DABUR RESEARCH FOUNDATION, priority 2001, published 2003)

Tests used:
[1] = test system: MOLT 4; assay: MTT cytotoxicity assay, MOLT 4 leukemia; format: cell-based; conditions: Homo sapiens; for IC50: 24 h, Molt 4 Leukemia, read-out: ED50 values of cytotoxicity; for cytotoxicity at 1000 µM / cytotoxicity at 2500 µM / cytotoxicity at 4000 µM / cytotoxicity at 5000 µM / cytotoxicity at 10000 µM: MOLT 4 Leukemia, read-out: Percent cytotoxicity; for cytotoxicity at 1000 µM: 1.0 mM; for cytotoxicity at 2500 µM: 2.5 mM; for cytotoxicity at 4000 µM: 4 mM; for cytotoxicity at 5000 µM: 5 mM; for cytotoxicity at 10000 µM: 10 mM
Method: (§1) Briefly, a […] MTT cytotoxicity assay was performed, which is based on the principle of uptake of MTT (3-(4,5-dimethylthiazol-2-yl)-2,5-diphenyl tetrazolium bromide), a tetrazolium salt, by the metabolically active cells where it is metabolized by active mitochondria into a blue colored formazan product that is read spectrophoto-metrically. MTT was dissolved in phosphate buffered saline with a pH of 7.4 to obtain an MTT concentration of 5 mg/ml; the resulting mixture was filtered through a 0.22 micron filter to sterilize and remove a small amount of insoluble residue. For each type of tumor cell, 20,000 to 50,000 cells were seeded in a 96-well culture plate and incubated with the combination in a CO2 incubator for 24 hours. […] The assay was terminated after 24 hours by adding 100 ug (20 ul) of MTT to each well, then incubating for additional one hour, and finally adding 50 ul of 10% SDS-0.01N HCl to each well to lyse the cells and dissolve formazan. After incubating for one hour, the plate was read spectrophotometrically at 540 nm and the percentage cytotoxicity calculated.

[2] = test system: PA 1; assay: MTT cytotoxicity assay, PA 1 ovary; format: cell-based; conditions: Homo sapiens; for IC50: 24 h, PA 1 Ovarian, read-out: ED50 values of cytotoxicity; for cytotoxicity at 1000 µM / cytotoxicity at 2500 µM / cytotoxicity at 4000 µM / cytotoxicity at 5000 µM / cytotoxicity at 10000 µM: PA 1 Ovary, read-out: Percent cytotoxicity; for cytotoxicity at 1000 µM: 1.0 mM; for cytotoxicity at 2500 µM: 2.5 mM; for cytotoxicity at 4000 µM: 4 mM; for cytotoxicity at 5000 µM: 5 mM; for cytotoxicity at 10000 µM: 10 mM
Method: as §1

[3] = test system: PTC; assay: MTT cytotoxicity assay, PTC colon; format: cell-based; conditions: Homo sapiens; for cytotoxicity at 1000 µM: 1.0 mM; for cytotoxicity at 1000 µM / cytotoxicity at 2500 µM / cytotoxicity at 4000 µM / cytotoxicity at 5000 µM / cytotoxicity at 10000 µM: read-out: Percent cytotoxicity; for cytotoxicity at 2500 µM: 2.5 mM; for cytotoxicity at 4000 µM: 4 mM; for cytotoxicity at 5000 µM: 5 mM; for cytotoxicity at 10000 µM: 10 mM; for IC50: 24 h, read-out: ED50 values of cytotoxicity
Method: as §1

[4] = test system: Miapaca2; assay: MTT cytotoxicity assay, Miapaca2 pancreas; format: cell-based; conditions: Homo sapiens; for cytotoxicity at 1000 µM: MIA PaCa-2, 1.0 mM; for cytotoxicity at 1000 µM / cytotoxicity at 2500 µM / cytotoxicity at 4000 µM / cytotoxicity at 5000 µM / cytotoxicity at 10000 µM: read-out: Percent cytotoxicity; for cytotoxicity at 2500 µM: MIA PaCa-2, 2.5 mM; for cytotoxicity at 4000 µM: MIA PaCa-2, 4 mM; for cytotoxicity at 5000 µM: MIA PaCa-2, 5 mM; for cytotoxicity at 10000 µM: MIA PaCa-2, 10 mM; for IC50: MIA PaCa-2, 24 h, read-out: ED50 values of cytotoxicity
Method: as §1

[5] = test system: DU145; assay: MTT cytotoxicity assay, DU145 prostate; format: cell-based; conditions: Homo sapiens; for cytotoxicity at 1000 µM: DU-145, 1.0 mM; for cytotoxicity at 1000 µM / cytotoxicity at 2500 µM / cytotoxicity at 4000 µM / cytotoxicity at 5000 µM / cytotoxicity at 10000 µM: read-out: Percent cytotoxicity; for cytotoxicity at 2500 µM: DU-145, 2.5 mM; for cytotoxicity at 4000 µM: DU-145, 4 mM; for cytotoxicity at 5000 µM: DU-145, 5 mM; for cytotoxicity at 10000 µM: DU-145, 10 mM; for IC50: DU-145, 24 h, read-out: ED50 values of cytotoxicity
Method: as §1

[6] = test system: L132; assay: MTT cytotoxicity assay, L132 lung; format: cell-based; conditions: Homo sapiens; for cytotoxicity at 1000 µM: 1.0 mM; for cytotoxicity at 1000 µM / cytotoxicity at 2500 µM / cytotoxicity at 4000 µM / cytotoxicity at 5000 µM / cytotoxicity at 10000 µM: read-out: Percent cytotoxicity; for cytotoxicity at 2500 µM: 2.5 mM; for cytotoxicity at 4000 µM: 4 mM; for cytotoxicity at 5000 µM: 5 mM; for cytotoxicity at 10000 µM: 10 mM; for IC50: 24 h, read-out: ED50 values of cytotoxicity
Method: as §1

[7] = test system: MCF7; assay: MTT cytotoxicity assay, MCF7 breast; format: cell-based; conditions: Homo sapiens; for IC50: MCF7, 24 h, MCF 7 Breast, read-out: ED50 values of cytotoxicity; for cytotoxicity at 1000 µM / cytotoxicity at 2500 µM / cytotoxicity at 4000 µM / cytotoxicity at 5000 µM / cytotoxicity at 10000 µM: MCF7 breast, read-out: Percent cytotoxicity; for cytotoxicity at 1000 µM: 1.0 mM; for cytotoxicity at 2500 µM: 2.5 mM; for cytotoxicity at 4000 µM: 4 mM; for cytotoxicity at 5000 µM: 5 mM; for cytotoxicity at 10000 µM: 10 mM
Method: as §1

[8] = test system: U87MG; assay: MTT cytotoxicity assay, U87MG glioblastoma; format: cell-based; conditions: Homo sapiens, U-87 MG, 24 h, read-out: ED50 values of cytotoxicity
Method: as §1

[9] = test system: KB; assay: MTT cytotoxicity assay, KB oral; format: cell-based; conditions: Homo sapiens, 24 h, read-out: ED50 values of cytotoxicity
Method: as §1

[10] = test system: Hep2; assay: MTT cytotoxicity assay, Hep2 larynx; format: cell-based; conditions: Homo sapiens, HEp-2, 24 h, read-out: ED50 values of cytotoxicity
Method: as §1

[11] = test system: 293; assay: MTT cytotoxicity assay, 293 kidney; format: cell-based; conditions: Homo sapiens, HEK293, 24 h, read-out: ED50 values of cytotoxicity
Method: as §1

[12] = test system: INT 407; assay: MTT cytotoxicity assay, INT 407 intestine; format: cell-based; conditions: Homo sapiens, 24 h, read-out: ED50 values of cytotoxicity
Method: as §1

[13] = test system: Swiss albino mice; conditions: both, mouse, in vivo, po, 15 days
Method: Acute toxicity studies were performed using the oral route of administration.
A batch of 5 female and 5 male mice each was administered the test substance by oral route. […] Another batch of 5 female and 5 male served as control.
Observations were made three times on the day of dosing and twice daily thereafter for the remainder of 14 days or until reversible toxic signs or symptoms subsided. All gross visible toxic signs and symptoms were recorded. Body weights were recorded prior to dosing and weekly thereafter.

## COC(=O)C1CCC(=O)N1C(OC(C)=O)C(C)=O (stereo not drawn) [MGC-4, N-(1-acetoxy-2-ketopropyl)-methylpyroglutamate]
[1]
  IC50: 1500 ± 200 µM
  cytotoxicity at 1000 µM: 36.9 ± 3.9%
  cytotoxicity at 2500 µM: 57.9 ± 3.1%
  cytotoxicity at 4000 µM: 78.9 ± 4.9%
  cytotoxicity at 5000 µM: 88.4 ± 7.5%
  cytotoxicity at 10000 µM: 85.9 ± 7.3%
[2]
  IC50: 1600 ± 200 µM
  cytotoxicity at 1000 µM: 28.9 ± 3.2%
  cytotoxicity at 2500 µM: 67.9 ± 4.9%
  cytotoxicity at 4000 µM: 87.9 ± 6.4%
  cytotoxicity at 5000 µM: 88.6 ± 6.9%
  cytotoxicity at 10000 µM: 88 ± 6.9%
[3]
  cytotoxicity at 1000 µM: 23.9 ± 3%
  cytotoxicity at 2500 µM: 39 ± 5.2%
  cytotoxicity at 4000 µM: 56.9 ± 5.9%
  cytotoxicity at 5000 µM: 84.2 ± 7.4%
  cytotoxicity at 10000 µM: 87.3 ± 6%
  IC50: 3800 ± 1100 µM
[4]
  cytotoxicity at 1000 µM: 0%
  cytotoxicity at 2500 µM: 3.9 ± 0.5%
  cytotoxicity at 4000 µM: 46.8 ± 4.9%
  cytotoxicity at 5000 µM: 57.9 ± 5.9%
  cytotoxicity at 10000 µM: 79.4 ± 4.8%
  IC50: 4200 ± 1100 µM
[5]
  cytotoxicity at 1000 µM: 28.9 ± 4.2%
  cytotoxicity at 2500 µM: 58.9 ± 4.9%
  cytotoxicity at 4000 µM: 82.1 ± 7.3%
  cytotoxicity at 5000 µM: 85.6 ± 7.3%
  cytotoxicity at 10000 µM: 87.9 ± 7.3%
  IC50: 1800 ± 300 µM
[6]
  cytotoxicity at 1000 µM: 0%
  cytotoxicity at 2500 µM: 0%
  cytotoxicity at 4000 µM: 0%
  cytotoxicity at 5000 µM: 4.9 ± 0.6%
  cytotoxicity at 10000 µM: 37.9 ± 3.5%
  IC50: > 5000 µM
[7]
  IC50: > 5000 µM
  cytotoxicity at 1000 µM: 0%
  cytotoxicity at 2500 µM: 0%
  cytotoxicity at 4000 µM: 3.8 ± 0.4%
  cytotoxicity at 5000 µM: 23.8 ± 0.8%
  cytotoxicity at 10000 µM: 31.9 ± 2.9%
[8]
  IC50: 2400 ± 500 µM
[9]
  IC50: 1550 ± 300 µM
[10]
  IC50: 3200 ± 800 µM
[11]
  IC50: 1400 ± 100 µM
[12]
  IC50: 2300 ± 1100 µM
[13]
  safe dose: 100 mg

## CCOC(=O)C1CCC(=O)N1C(O)C(C)=O (stereo not drawn) [MGC-7, N-(1-hydroxy-2-ketopropyl)-ethylpyroglutamate]
[1]
  IC50: 1500 ± 200 µM
  cytotoxicity at 1000 µM: 39.4 ± 2.7%
  cytotoxicity at 2500 µM: 58.5 ± 3.8%
  cytotoxicity at 4000 µM: 59.1 ± 4.3%
  cytotoxicity at 5000 µM: 64.3 ± 4.9%
  cytotoxicity at 10000 µM: 73.4 ± 2%
[2]
  IC50: 1200 ± 200 µM
  cytotoxicity at 1000 µM: 45.6 ± 1.9%
  cytotoxicity at 2500 µM: 58.4 ± 4.7%
  cytotoxicity at 4000 µM: 65.5 ± 3.9%
  cytotoxicity at 5000 µM: 79.9 ± 5.2%
  cytotoxicity at 10000 µM: 84.9 ± 5.4%
[3]
  cytotoxicity at 1000 µM: 34.3 ± 1.9%
  cytotoxicity at 2500 µM: 54.3 ± 4.9%
  cytotoxicity at 4000 µM: 65.9 ± 4.8%
  cytotoxicity at 5000 µM: 78.2 ± 3.9%
  cytotoxicity at 10000 µM: 82.2 ± 6.1%
  IC50: 2400 ± 500 µM
[4]
  cytotoxicity at 1000 µM: 0%
  cytotoxicity at 2500 µM: 28 ± 1.5%
  cytotoxicity at 4000 µM: 89 ± 2.3%
  cytotoxicity at 5000 µM: 88 ± 4.1%
  cytotoxicity at 10000 µM: 85 ± 4.1%
  IC50: 2400 ± 1000 µM
[5]
  cytotoxicity at 1000 µM: 56 ± 5.9%
  cytotoxicity at 2500 µM: 65 ± 2.9%
  cytotoxicity at 4000 µM: 78.4 ± 6.9%
  cytotoxicity at 5000 µM: 83 ± 4.9%
  cytotoxicity at 10000 µM: 89 ± 6.1%
  IC50: 850 ± 300 µM
[6]
  cytotoxicity at 1000 µM: 0%
  cytotoxicity at 2500 µM: 0%
  cytotoxicity at 4000 µM: 0%
  cytotoxicity at 5000 µM: 0%
  cytotoxicity at 10000 µM: 0%
  IC50: > 5000 µM
[7]
  IC50: 2800 ± 1100 µM
  cytotoxicity at 1000 µM: 7 ± 1.3%
  cytotoxicity at 2500 µM: 10 ± 2.5%
  cytotoxicity at 4000 µM: 69 ± 3.2%
  cytotoxicity at 5000 µM: 85 ± 4.5%
  cytotoxicity at 10000 µM: 83 ± 4.5%
[8]
  IC50: 1840 ± 600 µM
[9]
  IC50: 1850 ± 600 µM
[10]
  IC50: 2500 ± 1100 µM
[11]
  IC50: 3100 ± 1300 µM
[12]
  IC50: 2700 ± 1200 µM
[13]
  safe dose: 100 mg
